Data reported in patent US12495798B2, “Nicotinamide compound and herbicidal composition comprising compound” (KOREA RESEARCH INSTITUTE OF CHEMICAL TECHNOLOGY, priority 2019, dated 2025).

Tests used:
Format in all cases: in vivo
sorghum = test: Herbicidal activity test against upland field weeds (foliar treatment test); set-up: key to Foliar treatment herbicidal activity, Sorghum: 0 (no control); 100 (complete control); details: 50 g ai/ha, scale 0-100; for plant injury at 50 g/ha: Sorghum
Procedure: (§1) Experimental Example 1: Herbicidal Activity Test Against Upland Field Weeds (Foliar Treatment Test) Foliar treatment was performed as follows: After filling a square plastic pot having a surface area of 350 cm^2 with horticultural soil, seeds (10˜15 grains) or rootstocks (2 pieces) of 5 kinds of grassy weeds of sorghum, barnyard grass, quack grass, crabgrass, fall panicum, and 5 kinds of broadleaf weeds of black nightshade, indian jointvetch, velvetleaf, cocklebur, bindweed, which had been stored in a low temperature (6° C.), were sown. After growing for a certain period in greenhouse conditions (average temperature 30±5° C., light/dark=14/10 hours), test compound solutions were made by diluting with a preparation solution (including 50% acetone, 0.1% Tween-20) so that the final treatment amount of the test compounds was 50 or 75 g a.i./ha. The prepared test compound solution was used for treating foliage by hand-spraying 14 mL per pot in a fume hood. After the treatment, it was managed under the same greenhouse conditions as above, and after 14 days (after 21 days if necessary), the external symptoms and efficacy were investigated according to the scale of 0 (no control) to 100 (complete control). The results of Table 7 were obtained by evaluating weed control value to the untreated control by conducting visual assessment.

quack grass = test: as above; set-up: key to Foliar treatment herbicidal activity, quack grass: 0 (no control); 100 (complete control); details: 50 g ai/ha, scale 0-100
Procedure: as §1

velvetleaf = test: as above; set-up: key to Foliar treatment herbicidal activity, velvet leaf: 0 (no control); 100 (complete control); details: 50 g ai/ha; for pest or weed control at 50 g/ha: Abutilon theophrasti, scale 0-100, read-out: Foliar treatment herbicidal activity, velvet leaf; for Foliar treatment herbicidal activity, velvet leaf: scale 0-100
Procedure: as §1

indian jointvetch = test: as above; set-up: key to Foliar treatment herbicidal activity, Indian jointvetch: 0 (no control); 100 (complete control); details: 50 g ai/ha, scale 0-100
Procedure: as §1

bindweed = test: as above; details: 50 g ai/ha, scale 0-100
Procedure: as §1

fall panicum = test: as above; details: 50 g ai/ha, scale 0-100; for pest or weed control at 50 g/ha: Panicum dichotomiflorum
Procedure: as §1

crabgrass = test: as above; details: 50 g ai/ha, scale 0-100; for pest or weed control at 50 g/ha: Digitaria sanguinalis
Procedure: as §1

black nightshade = test: as above; set-up: key to Foliar treatment herbicidal activity, black nightshade: 0 (no control); 100 (complete control); details: 50 g ai/ha, scale 0-100; for pest or weed control at 50 g/ha: Solanum nigrum
Procedure: as §1

cocklebur = test: as above; details: 50 g ai/ha, scale 0-100; for pest or weed control at 50 g/ha: Xanthium strumarium
Procedure: as §1

barnyard grass = test: as above; details: 50 g ai/ha, scale 0-100; for pest or weed control at 50 g/ha: Echinochloa crus-galli
Procedure: as §1

corn = test: Phytotoxicity test for upland field crops (foliar treatment test); set-up: key: 0 (no harm); 9 (complete withered)
Procedure: (§2) Experimental Example 3: Phytotoxicity Test for Upland Field Crops (Foliar Treatment Test)
(§3) Foliar treatment was performed for grown crops and weeds in a square plastic pot having a surface area of 50 cm^2 filled with horticultural soil. As a fertilizer per pot, 0.5 g of horticultural mixed fertilizer (N:P:K=17:21:17) was treated by mixing in the upper soil. Five kinds of crops such as rice, wheat, corn, soybean, and cotton were sown in each pot, and after growing for a certain period in greenhouse conditions (average temperature 30±5° C., light/dark=14/10 hours), test compound solutions were made by diluting with the diluent (33% acetone, 0.1% Tween-20) so that the final treatment amount of the test compounds was 19˜300 g a.i./ha. The prepared test compound solutions were treated using a spray booth (SB6-016) at a treatment amount of 100 ml per 1 m^2 of treatment area. The treated plants were managed under the same greenhouse conditions as above, and external symptoms and phytotoxicity were investigated 7 and 14 days after treatment (after 21 days if necessary). In the evaluation of the phytotoxicity for the crop, the grade of 0 (no harm) to 9 (complete withered) was used. The results of Table 9 were obtained by evaluating crop phytotoxicity value to the untreated control.

wheat = test: as above; set-up: key: 0 (no harm); 9 (complete withered)
Procedure: as §2, §3

[1] = 50 g ai/ha, Corn (7 days after treatment)
[2] = 50 g ai/ha, Corn (14 days after treatment)
[3] = 100 g ai/ha, Corn (7 days after treatment)
[4] = 100 g ai/ha, Corn (14 days after treatment)
[5] = 50 g ai/ha, Wheat (7 days after treatment)
[6] = 50 g ai/ha, Wheat (14 days after treatment)
[7] = 100 g ai/ha, Wheat (7 days after treatment)
[8] = 100 g ai/ha, Wheat (14 days after treatment)

Compound: Cn1nnnc1NC(=O)c1ccc(C(F)(F)F)nc1COCc1nc(S(C)(=O)=O)n(C)n1 [Compound No. 2-132, N-(1-methyl-1H-tetrazol-5-yl)-2-(((1-methyl-5-(methylsulfonyl)-1H-1,2,4-triazol-3-yl)methoxy)methyl)-6-(trifluoromethyl)nicotinamide]
- plant injury at 50 g/ha (sorghum): 30%
- Foliar treatment herbicidal activity, quack grass (quack grass): 0
- pest or weed control at 50 g/ha (velvetleaf): 98%
- pest or weed control at 50 g/ha (indian jointvetch): 20%
- pest or weed control at 50 g/ha (bindweed): 70%
- pest or weed control at 50 g/ha (fall panicum): 50%
- pest or weed control at 50 g/ha (crabgrass): 98%
- Foliar treatment herbicidal activity, black nightshade (black nightshade): 100
- pest or weed control at 50 g/ha (cocklebur): 98%
- pest or weed control at 50 g/ha (barnyard grass): 98%
- Foliar treatment phytotoxicity, Corn (corn; [1]): 0
- Foliar treatment phytotoxicity, Corn (corn; [2]): 0
- Foliar treatment phytotoxicity, Corn (corn; [3]): 0
- Foliar treatment phytotoxicity, Corn (corn; [4]): 0
- Foliar treatment phytotoxicity, Wheat (wheat; [5]): 3
- Foliar treatment phytotoxicity, Wheat (wheat; [6]): 2
- Foliar treatment phytotoxicity, Wheat (wheat; [7]): 3
- Foliar treatment phytotoxicity, Wheat (wheat; [8]): 2

Compound: C=CCn1nnnc1NC(=O)c1ccc(C(F)(F)F)nc1COCc1nc(C(F)F)n(C)n1 [Compound No. 2-125, N-(1-allyl-1H-tetrazol-5-yl)-2-(((5-(difluoromethyl)-1-methyl-1H-1,2,4-triazol-3-yl)methoxy)methyl)-6-(trifluoromethyl)nicotinamide]
- plant injury at 50 g/ha (sorghum): 30%
- pest or weed control at 50 g/ha (quack grass): 40%
- pest or weed control at 50 g/ha (velvetleaf): 40%
- pest or weed control at 50 g/ha (indian jointvetch): 60%
- pest or weed control at 50 g/ha (bindweed): 95%
- pest or weed control at 50 g/ha (fall panicum): 90%
- pest or weed control at 50 g/ha (crabgrass): 95%
- pest or weed control at 50 g/ha (black nightshade): 95%
- pest or weed control at 50 g/ha (cocklebur): 80%
- pest or weed control at 50 g/ha (barnyard grass): 60%
- Foliar treatment phytotoxicity, Corn (corn; [1]): 0
- Foliar treatment phytotoxicity, Corn (corn; [2]): 0
- Foliar treatment phytotoxicity, Corn (corn; [3]): 1
- Foliar treatment phytotoxicity, Corn (corn; [4]): 1
- Foliar treatment phytotoxicity, Wheat (wheat; [5]): 0
- Foliar treatment phytotoxicity, Wheat (wheat; [6]): 0
- Foliar treatment phytotoxicity, Wheat (wheat; [7]): 0
- Foliar treatment phytotoxicity, Wheat (wheat; [8]): 0

Compound: Cn1nc(COCc2nc(C(F)(F)F)ccc2C(=O)Nc2nnnn2C)nc1I [Compound No. 2-137]
- Foliar treatment herbicidal activity, Sorghum (sorghum): 60
- Foliar treatment herbicidal activity, quack grass (quack grass): 0
- Foliar treatment herbicidal activity, velvet leaf (velvetleaf): 100
- Foliar treatment herbicidal activity, Indian jointvetch (indian jointvetch): 100
- Foliar treatment herbicidal activity, Bindweed (bindweed): 70
- Foliar treatment herbicidal activity, Fall panicum (fall panicum): 50
- Foliar treatment herbicidal activity, Crabgrass (crabgrass): 95
- Foliar treatment herbicidal activity, black nightshade (black nightshade): 100
- Foliar treatment herbicidal activity, Cocklebur (cocklebur): 98
- Foliar treatment herbicidal activity, barnyard grass (barnyard grass): 95
- Foliar treatment phytotoxicity, Corn (corn; [1]): 0
- Foliar treatment phytotoxicity, Corn (corn; [2]): 0
- Foliar treatment phytotoxicity, Corn (corn; [3]): 0
- Foliar treatment phytotoxicity, Corn (corn; [4]): 0
- Foliar treatment phytotoxicity, Wheat (wheat; [5]): 0
- Foliar treatment phytotoxicity, Wheat (wheat; [6]): 0
- Foliar treatment phytotoxicity, Wheat (wheat; [7]): 0
- Foliar treatment phytotoxicity, Wheat (wheat; [8]): 0

Compound: C=CCn1nnnc1NC(=O)c1ccc(C(F)(F)F)nc1COCc1nc(C(F)(F)F)n(C)n1 [Compound No. 2-121, N-(1-allyl-1H-tetrazol-5-yl)-2-(((1-methyl-5-(trifluoromethyl)-1H-1,2,4-triazol-3-yl)methoxy)methyl)-6-(trifluoromethyl)nicotinamide]
- plant injury at 50 g/ha (sorghum): 10%
- Foliar treatment herbicidal activity, quack grass (quack grass): 0
- pest or weed control at 50 g/ha (velvetleaf): 40%
- pest or weed control at 50 g/ha (indian jointvetch): 30%
- pest or weed control at 50 g/ha (bindweed): 40%
- pest or weed control at 50 g/ha (fall panicum): 50%
- pest or weed control at 50 g/ha (crabgrass): 30%
- pest or weed control at 50 g/ha (black nightshade): 95%
- pest or weed control at 50 g/ha (cocklebur): 70%
- pest or weed control at 50 g/ha (barnyard grass): 20%
- Foliar treatment phytotoxicity, Corn (corn; [1]): 0
- Foliar treatment phytotoxicity, Corn (corn; [2]): 0
- Foliar treatment phytotoxicity, Corn (corn; [3]): 0
- Foliar treatment phytotoxicity, Corn (corn; [4]): 0
- Foliar treatment phytotoxicity, Wheat (wheat; [5]): 0
- Foliar treatment phytotoxicity, Wheat (wheat; [6]): 0
- Foliar treatment phytotoxicity, Wheat (wheat; [7]): 0
- Foliar treatment phytotoxicity, Wheat (wheat; [8]): 0

Compound: CCn1nnnc1NC(=O)c1ccc(C(F)(F)F)nc1COCc1nc(C(F)(F)F)n(C)n1 [Compound No. 2-119, N-(1-ethyl-1H-tetrazol-5-yl)-2-(((1-methyl-5-(trifluoromethyl)-1H-1,2,4-triazol-3-yl)methoxy)methyl)-6-(trifluoromethyl)nicotinamide]
- plant injury at 50 g/ha (sorghum): 20%
- pest or weed control at 50 g/ha (quack grass): 30%
- pest or weed control at 50 g/ha (velvetleaf): 50%
- pest or weed control at 50 g/ha (indian jointvetch): 60%
- pest or weed control at 50 g/ha (bindweed): 80%
- pest or weed control at 50 g/ha (fall panicum): 90%
- pest or weed control at 50 g/ha (crabgrass): 95%
- pest or weed control at 50 g/ha (black nightshade): 98%
- pest or weed control at 50 g/ha (cocklebur): 90%
- pest or weed control at 50 g/ha (barnyard grass): 95%
- Foliar treatment phytotoxicity, Corn (corn; [1]): 0
- Foliar treatment phytotoxicity, Corn (corn; [2]): 0
- Foliar treatment phytotoxicity, Corn (corn; [3]): 0
- Foliar treatment phytotoxicity, Corn (corn; [4]): 0
- Foliar treatment phytotoxicity, Wheat (wheat; [5]): 0
- Foliar treatment phytotoxicity, Wheat (wheat; [6]): 0
- Foliar treatment phytotoxicity, Wheat (wheat; [7]): 0
- Foliar treatment phytotoxicity, Wheat (wheat; [8]): 0

Compound: C#CCn1nnnc1NC(=O)c1ccc(C(F)(F)F)nc1COCc1nc(C(F)(F)F)n(C)n1 [Compound No. 2-122]
- Foliar treatment herbicidal activity, Sorghum (sorghum): 0
- Foliar treatment herbicidal activity, quack grass (quack grass): 30
- Foliar treatment herbicidal activity, velvet leaf (velvetleaf): 50
- Foliar treatment herbicidal activity, Indian jointvetch (indian jointvetch): 70
- Foliar treatment herbicidal activity, Bindweed (bindweed): 70
- Foliar treatment herbicidal activity, Fall panicum (fall panicum): 40
- Foliar treatment herbicidal activity, Crabgrass (crabgrass): 20
- Foliar treatment herbicidal activity, black nightshade (black nightshade): 95
- Foliar treatment herbicidal activity, Cocklebur (cocklebur): 80
- Foliar treatment herbicidal activity, barnyard grass (barnyard grass): 50
- Foliar treatment phytotoxicity, Corn (corn; [1]): 0
- Foliar treatment phytotoxicity, Corn (corn; [2]): 0
- Foliar treatment phytotoxicity, Corn (corn; [3]): 0
- Foliar treatment phytotoxicity, Corn (corn; [4]): 0
- Foliar treatment phytotoxicity, Wheat (wheat; [5]): 0
- Foliar treatment phytotoxicity, Wheat (wheat; [6]): 0
- Foliar treatment phytotoxicity, Wheat (wheat; [7]): 0
- Foliar treatment phytotoxicity, Wheat (wheat; [8]): 0

Compound: C=CCn1nnnc1NC(=O)c1ccc(C(F)(F)F)nc1COCc1nnn(CC)n1 [Compound No. 2-90, N-(1-allyl-1H-tetrazol-5-yl)-2-(((2-ethyl-2H-tetrazol-5-yl)methoxy)methyl)-6-(trifluoromethyl)nicotinamide]
- plant injury at 50 g/ha (sorghum): 20%
- Foliar treatment herbicidal activity, quack grass (quack grass): 0
- pest or weed control at 50 g/ha (velvetleaf): 98%
- pest or weed control at 50 g/ha (indian jointvetch): 80%
- pest or weed control at 50 g/ha (bindweed): 70%
- pest or weed control at 50 g/ha (fall panicum): 60%
- pest or weed control at 50 g/ha (crabgrass): 70%
- Foliar treatment herbicidal activity, black nightshade (black nightshade): 100
- pest or weed control at 50 g/ha (cocklebur): 70%
- pest or weed control at 50 g/ha (barnyard grass): 98%
- Foliar treatment phytotoxicity, Corn (corn; [1]): 0
- Foliar treatment phytotoxicity, Corn (corn; [2]): 0
- Foliar treatment phytotoxicity, Corn (corn; [3]): 0
- Foliar treatment phytotoxicity, Corn (corn; [4]): 0
- Foliar treatment phytotoxicity, Wheat (wheat; [5]): 0
- Foliar treatment phytotoxicity, Wheat (wheat; [6]): 0
- Foliar treatment phytotoxicity, Wheat (wheat; [7]): 0
- Foliar treatment phytotoxicity, Wheat (wheat; [8]): 0
